Results taken from patent EP1967193A1, “Enhancement of anticancer therapy by flavonoids” (Vrije Universiteit Medisch Centrum (VUMC), priority 2007, dated 2008).
Where “and” joins values, the source holds several entries; their conditions need not be identical. Identical values can stand only once. Entries after “also recorded” stand apart in the source; their conditions may differ.

How the values were obtained:
STS = STS patients without prior chemotherapy; DOX alone; cited from earlier work
cardiomyocytes [1] = conditions: cited from earlier work
cardiomyocytes [2] = assay: Phase II study: endomyocardial biopsy scored by electron microscopy for DOX-induced cardiotoxicity; format: in vivo, human; conditions: for Biopsy score cum.dose/Δt/grade: left ventricle; for Cum.dose / biopsy score / LVEF: biopsy score: second biopsy
Method: In this example, we evaluated the cardioprotective properties of monoHER given as a 10 minute i.v infusion at a dose of 1500 mg/m^2 in patients with metastatic cancer treated with DOX. For the early detection of DOX-induced cardiotoxicity endomyocardial biopies were taken, because of its high sensitivity and high specificity (18).
(§1) MonoHER was administered as a 10 min intravenous infusion at a dose of 1500 mg/m^2 60 min before every DOX administration. If cardiotoxicity would be observed in the first three evaluable patients, administration according to this dosing scheme would be changed and the following patients would receive DOX infusion either immediately after monoHER (because in plasma and heart Cmax of monoHER is obtained immediately after the end of infusion (17, 19)) or with an interval of 2 hours (to give monoHER the opportunity to convert into an active metabolite, if any).
(§2) After a cumulative dose of 300 mg/m^2 DOX an endomyocardial biopsy was performed and measurement of the LVEF was repeated. The latter was also done at least 3 weeks after the last dose of DOX and a biopsy was repeated if possible. For logistic reasons, the biopsy of patient #8 was done after a cumulative dose of 375 mg/m^2 DOX.
During a left heart catheterization, a 104 cm, 7 french biopsy forceps was used to obtain tissue from the left ventricle. Three to four specimens 0.5 to 1 mm in diameter were obtained. The specimens were fixed in 4% buffered formaldehyde and prepared for electron microscopy.
After fixation in 4% buffered formaldehyde, the heart tissue was post fixed in 1% osmium tetroxide. The tissue was then dehydrated through a graded series of ethanol solutions of 70-95% and embedded in JB-4 Plus resin. Thereafter, 0.5-3.0 µm thick sections were cut with a glass knife. These semithin sections were processed for electron microscopy. Cardiomyocytes with more than 2 microvacuoles, macrovacuoles and/or loss of myofibrils were counted as deviant. The morphological grade determined from the specimens examined by electron microscopy was scored on a 6-point scale previously described by Billingham and Bristow (20, 21): in grade 0 cells are normal; in grade 1, 1.5, 2 and 2.5 deviant cells are < 5%, 5-15%, 16 - 25 % and 26 - 35%, respectively; in grade 3 cell damage is present in more than 35% of cells.

[3] = Phase II study: monitoring of cardiac function (LVEF, ECG); format: in vivo, human
Method: (§3) Before starting the study patients were evaluated by a full blood count, serum biochemistry including liver function tests, lactate dehydrogenase (LDH) and cholesterol. Risk factors for cardiovascular disease were also evaluated. An LVEF and an ECG were performed before entry into the study.
(§4) Every subsequent administration of monoHER and DOX was preceded by a full blood count, liver enzymes, serum creatinine and a routine 12-lead ECG. A complete blood count was also done 10 days after the chemotherapy.
as §2
Patients went off study in case of progressive disease, a serious cardiac event, or other events that precluded further treatment. Criteria described by Shapiro et al. (22) were used for diagnosis of cardiac events. Episodes of cardiac dysfunction were characterized according to the New York Heart Association functional classification (23).

metastatic solid tumors = assay: Phase II study: assessment of tumor response by CT-scan, ECOG criteria; format: in vivo, human; parameters: key to Response on dox: PD = progressive disease; PR = partial remission; SD = stabile disease; conditions: for partial remission maintained, time after the start of chemotherapy: maintained up to the present
Method: Patients with metastatic solid tumors were entered when they received a DOX-based chemotherapy regimen with a dosage of DOX ≥ 50 mg/m^2/ cycle and an infusion duration ≤ 1 hour. […] The left ventricular ejection fraction (LVEF) was > 50%. Patients were excluded if they had received prior anthracyclines, had prior or actual cardiovascular disease or had prior radiotherapy to the mediastinum.
as §1
Assessment of tumor response was done every 2-3 cycles by CT-scan, using standard ECOG criteria (24).

[4] = Phase II study: adverse events and laboratory monitoring; format: in vivo, human
Method: as §1, §3, §4

[5] = Detection of metabolites of monoHER
[6] = cited from earlier work
[7] = test system: doxorubicin-induced chronic cardiotoxicity; conditions: preclinical, cited from earlier work
[8] = patient 03, cum. dose 480 mg/m^2 DOX
[9] = patient 04, cum. dose 450 mg/m^2 DOX

For `COc1cccc2c1C(=O)c1c(O)c3c(c(O)c1C2=O)C[C@@](O)(C(=O)CO)C[C@@H]3O[C@H]1C[C@H](N)[C@H](O)[C@H](C)O1` [DOX, doxorubicin], the “objective responses on DOX” value (STS) is listed as “approximately 25%”, the “patients with anthracycline-induced myocardial damage” value (cardiomyocytes [1]; cumulative DOX doses of 240 mg/m^2, data of Billingham et al.) is listed as “nearly all patients” and the “biopsy score expected after DOX alone” value (cardiomyocytes [1]; cumulative dose of 300 mg/m^2 DOX, linear regression analysis of Torti et al., right ventricle) is listed as 1.4.
In the case of `C[C@@H]1O[C@@H](OC[C@H]2O[C@@H](Oc3c(-c4ccc(O)c(O)c4)oc4cc(OCCO)cc(O)c4c3=O)[C@H](O)[C@@H](O)[C@@H]2O)[C@H](O)[C@H](O)[C@H]1O` [monoHER, 7-monohydroxyethylrutoside], the “mean biopsy score according to Billingham” value (cardiomyocytes [2]; 5 patients, median cumulative dose 300 mg/m2 DOX, monoHER 1500 mg/m^2 before DOX) is reported as 2.7, the “cardioprotective effect against DOX-induced cardiotoxicity” value (cardiomyocytes [2]; five patients with biopsy, monoHER 1500 mg/m^2) is reported as “no cardioprotective effect; also recorded: did not protect against DOX-induced cardiotoxicity” and the “Biopsy score cum.dose/Δt/grade” value (cardiomyocytes [2]; patient 03, cum. dose 300 mg/m^2 DOX, Δt 60 min after monoHER 1500 mg/m^2) is reported as 300 / 60 / Grade 3 (in grade 3 cell damage is present in more than 35% of cells). For the same molecule, the “Cum.dose / biopsy score / LVEF: biopsy score” value (cardiomyocytes [2]; [8]) was 3 (in grade 3 cell damage is present in more than 35% of cells), the “Cum.dose / biopsy score / LVEF: biopsy score” value (cardiomyocytes [2]; [9]) was 2.5 (in grade 1, 1.5, 2 and 2.5 deviant cells are < 5%, 5-15%, 16 - 25 % and 26 - 35%, respectively) and the “Biopsy score 10 months after last cycle” value (cardiomyocytes [2]; patient 04, third biopsy) was 2 (in grade 1, 1.5, 2 and 2.5 deviant cells are < 5%, 5-15%, 16 - 25 % and 26 - 35%, respectively). For the same molecule, the “Biopsy score cum.dose/Δt/grade” value (cardiomyocytes [2]; patient 06, cum. dose 300 mg/m^2 DOX, Δt 60 min after monoHER 1500 mg/m^2) was 300 / 60 / Grade 2.5 (in grade 1, 1.5, 2 and 2.5 deviant cells are < 5%, 5-15%, 16 - 25 % and 26 - 35%, respectively), the “Biopsy score cum.dose/Δt/grade” value (cardiomyocytes [2]; patient 07, cum. dose 300 mg/m^2 DOX, Δt 10 min after monoHER 1500 mg/m^2) was 300 / 10 / Grade 3 (in grade 3 cell damage is present in more than 35% of cells) and the “Biopsy score cum.dose/Δt/grade” value (cardiomyocytes [2]; patient 08, cum. dose 375 mg/m^2 DOX, Δt 120 min after monoHER 1500 mg/m^2) was 375 / 120 / Grade 3 (in grade 3 cell damage is present in more than 35% of cells). The “microvacuoles present in % of the cardiomyocytes” value (cardiomyocytes [2]; patient #3, after 300 mg/m^2 DOX, monoHER 60 min before DOX) was 52%, the “microvacuoles present in % of the cardiomyocytes” value (cardiomyocytes [2]; patient #4, after 300 mg/m^2 DOX, monoHER 60 min before DOX) was 20% and the “cardiomyocytes with > 2 small vacuoles per cardiomyocyte” value (cardiomyocytes [2]; patient #6, after 300 mg/m^2 DOX, monoHER 60 min before DOX) was 33%. For the same molecule, the “microvacuolization in % of the cardiomyocytes” value (cardiomyocytes [2]; patient #7, DOX immediately after monoHER) was 60%, the “microvacuolization in % of the cardiomyocytes” value (cardiomyocytes [2]; patient #8, DOX 2 h after monoHER) was 49% and the “patients in whom the LVEF decreased” value ([3]; after 300-375 mg/m^2 DOX, no LVEF information for patient #6) was 4/5. For the same molecule, the ECG during therapy ([3]; all patients) was “remained unchanged”, the cardiac dysfunction ([3]; all patients, during therapy) was “no cardiac dysfunction occurred” and the “LVEF 10 months after last cycle” value ([3]; patient 03) was “ND / 51%”. For the same molecule, the “LVEF after ≥ 300 mg/m^2” value ([3]; patient 03, LVEF before dox 71%, Δt 60 min) was 67%, the “Cum.dose / biopsy score / LVEF: LVEF” value [3, 8] was 53% and the “LVEF 10 months after last cycle” value ([3]; patient 04) was 62%. For the same molecule, the “LVEF after ≥ 300 mg/m^2” value ([3]; patient 04, LVEF before dox 72%, Δt 60 min) was 60%, the “Cum.dose / biopsy score / LVEF: LVEF” value [3, 9] was 66% and the “LVEF after ≥ 300 mg/m^2” value ([3]; patient 07, LVEF before dox 75%, Δt 10 min) was 63%. For the same molecule, the “LVEF after ≥ 300 mg/m^2” value ([3]; patient 08, LVEF before dox 65%, Δt 120 min, 375 mg/m^2 DOX) was 63%, the “decline of LVEF compared to the ejection fraction before start of the study” value ([3]; patient #3, after 480 mg/m2 DOX, 71% to 53%) was 25% and the “decline of LVEF” value ([3]; patient #4, 72% before chemotherapy to 60% after 300 mg/m2 DOX) was greater than 15%. For the same molecule, the “LVEF decrease in comparison to the initial LVEF” value ([3]; two other patients) was 4-6%, the “LVEF drop in comparison to the initial LVEF” value ([3]; two patients) was 16% and the “patients with partial remission / objective remission” value (metastatic solid tumors; 4 patients with metastatic soft tissue sarcoma (STS), DOX preceded by monoHER 1500 mg/m^2) was “Three and 3 of the four”. The “effect on antitumour activity of DOX” value (metastatic solid tumors; STS patients) was “enhances the antitumour activity of DOX”, the Response on dox (metastatic solid tumors; patient 01, Breast cancer, total DOX 100 mg/m^2, monoHER 1500 mg/m^2 i.v. 60 min before every DOX) was “PD” and the Response on dox (metastatic solid tumors; patient 02, Adrenal cortical cancer, total DOX 150 mg/m^2, monoHER 1500 mg/m^2 i.v. 60 min before every DOX) was “PD”. For the same molecule, the Response on dox (metastatic solid tumors; patient 03, Malignant peripheral nerve sheet tumor, total DOX 480 mg/m^2, monoHER 1500 mg/m^2 i.v. 60 min before every DOX) was “PR”, the Response on dox (metastatic solid tumors; patient 04, Malignant fibrous histiocytoma, total DOX 450 mg/m^2, monoHER 1500 mg/m^2 i.v. 60 min before every DOX) was “PR” and the Response on dox (metastatic solid tumors; patient 05, Breast cancer, total DOX 100 mg/m^2, monoHER 1500 mg/m^2 i.v. 60 min before every DOX) was “PD”. For the same molecule, the Response on dox (metastatic solid tumors; patient 06, Breast cancer, total DOX 300 mg/m^2, monoHER 1500 mg/m^2 i.v. 60 min before every DOX) was “SD”, the Response on dox (metastatic solid tumors; patient 07, Malignant fibrous histiocytoma, total DOX 300 mg/m^2, DOX immediately after monoHER 1500 mg/m^2 i.v.) was “PR” and the Response on dox (metastatic solid tumors; patient 08, Malignant fibrous histiocytoma, total DOX 375 mg/m^2, DOX 2 h after monoHER 1500 mg/m^2 i.v.) was “SD”. The “duration of partial remission” value (metastatic solid tumors; patient #3, then progressive disease) was “nine”, the “partial remission maintained, time after the start of chemotherapy” value (metastatic solid tumors; patient #4) was no less than 30 months and the “partial remission maintained, time after the start of chemotherapy” value (metastatic solid tumors; patient #7) was no less than 16 months. For the same molecule, the “duration of stable disease” value (metastatic solid tumors; patient #8, continuing DOX up to cumulative dose of 495 mg/m^2) was “at least 7 months”, the “adverse events during monoHER infusion” value ([4]; 8 patients, sensation of fullness in stomach (one), itching in skin of neck (one), during each cycle) was “two patients reported adverse events” and the leucopenia ([4]; due to chemotherapy, recovered before the start of the next cycle) was “all patients developed leucopenia”. The “liver enzymes and serum creatinine” value ([4]; monoHER 1500 mg/m^2 plus DOX) was “No disturbances”, the “metabolites of monoHER” value [5] was “no metabolites of monoHER have been detected until now” and the “Cmax and AUC” value ([6]; dose 1500 mg/m^2) was “comparable to those obtained in mice under protecting conditions”. The side effects ([6]; up to a dose of 1500 mg/m^2) was “No serious side effects were observed”, the “influence on the antitumor activity of doxorubicin” value ([7]; in vitro or in vivo) was “did not influence the antitumor activity of doxorubicin” and the “cardioprotection against doxorubicin-induced chronic cardiotoxicity” value ([7]; animals) was “dose-dependent cardioprotection”.
